Source: patent US10363276B2, “Compositions, methods, and devices for treating disease” (The General Hospital Corporation, priority 2006, dated 2019)

Tests used:
human MSCs = test: IL-10 mRNA (RT-PCR) and protein (ELISA) in cytokine-treated MSCs; format: cell-based; settings: IL-6 2.5 ng/ml or TNF-α 25 ng/ml, 24 hours
Method: MSCs were exposed to IL-1, IL-6, or tumor necrosis factor-α(TNF-α), all of which are cytokines known to be involved in liver fibrosis, for 24 hours. IL-10 protein secretion and mRNA levels were the determined by enzyme-linked-immunosorbent-assay (ELISA) and RT-PCR, respectively.
Briefly, human MSCs were treated with 2.5 ng/ml IL-6 (R&D Systems, Minneapolis, Minn.), 5 ng/ml IL-1 (R&D Systems, Minneapolis, Minn.), or 25 ng/ml TNF-α (R&D Systems, Minneapolis, Minn.) supplemented MSC expansion medium for 24 hours. MSCs cultured in expansion medium served as a negative control. After treatment, cells were harvested and analyzed for changes in gene expression.
Quantification of human IL-10 was determined using an ELISA as per vendor instructions (Endogen, Rockford, Ill.). Supernatants were sampled after 48 hours of co-culture and stored at −20° C. until analysis.
RNA was extracted from 0.1-1.0×10^6 MSCs using the NUCLEOSPIN RNA purification kit (BD Biosciences, Palo Alto, Calif.) per the manufacturer's instructions. Approximately 1 μg of total mRNA was reverse transcribed to cDNA using the ONESTEP RT-PCR Kit (Qiagen, Valencia, Calif.) per manufacturer's instructions and amplified in a Perkin Elmer-Cetus Thermal Cycler 480. Cycling conditions were: 1) 50° C. for 30 minutes; 2) 95° C. for 15 minutes; 3) 30 cycles at 94° C. for 30 seconds, 55° C. for 30 seconds, and 72° C. for 1 minute; and 4) a final extension step at 72° C. for 10 minutes. IL-10 was amplified using a combination of the sense and antisense oligonucleotides SEQ ID NO:1 and SEQ ID NO:2, respectively, to yield a 364 base pair (bp) PCR product. Glyceraldehyde 3-phosphate dehydrogenase (GAPDH) was amplified using a combination of the sense and antisense oligonucleotides SEQ ID NO:3 and SEQ ID NO:4, respectively, to yield a 238 bp PCR product.

Hepatocytes = test: Hepatocyte colonies and urea synthesis with modulation of SDF-1a signaling; format: cell-based; settings: 5 ng/ml SDF-1a or AMD3100 at 1 uM in standard culture medium
Method: FIG. 24 is a bar graph of Urea synthesis in hepatocytes cultured on growth-arrested NIH-3T3-J2 fibroblasts for 14 days supplemented with 5 ng/ml SDF-1a or AMD3100, a CXCR4 antagonist. Data represent mean±standard error of the mean (s.e.m.) of two independent experiments performed in triplicate.
One component of MSC-CM that may be responsible for increased hepatocyte replication is SDF-1a. Hepatocytes were proliferated using aforementioned techniques in standard culture medium alone or supplemented with 5 ng/ml SDF-1a (FIG. 29B) or the SDF-1a receptor antagonist, AMD3100 at 1 uM.

hepatocyte colony size (Hepatocytes)	Compound	IL-10 mRNA in MSCs (human MSCs)	IL-10 protein secretion into the culture medium by MSCs (human MSCs)
	IL-6: cytokine (R&D Systems) used at 2.5 ng/ml to treat human MSCs	upregulation	upregulation
smaller colonies	c1cc(CN2CCCNCCNCCCNCC2)ccc1CN1CCCNCCNCCCNCC1 [AMD3100]		
	TNF-α	upregulation	upregulation
